{
  "source": "patent US20260076982A1",
  "about": "“Prodrugs of Cannbidiol [CBD]-Type Phytocannabinoids and a Process for Preparation Thereof” (priority 2022, published 2026)",
  "key": {"[1]": {"experiment": "Ex vivo human plasma stability / release kinetic study of CBD prodrugs", "type": "in vitro ADME", "details": "human blood plasma with citrate buffer; for prodrug left after 24 h / concentration of cannabidiol (B1) released from prodrug after 24 h / concentration of cannabidiol (B1) at start of release: 37° C.; for stability / conversion of prodrug in plasma: over 24 h; for concentration of cannabidiol (B1) released from prodrug after 24 h: HPLC; for concentration of cannabidiol (B1) at start of release: initial value of the release range", "experimental": "For the preparation of citrate buffer solution (pH=7.6), 100 ml of HPLC water, 0.25 M sucrose and 40 mM sodium citrate were taken.\nTo construct a calibration curve, […] different concentration such as 0.78, 1.56, 3.12, 6.25, 12.5, 25, 50 mg/ml of CBD based prodrugs and the parent cannabidiol were prepared. All sample were analyzed by 4.6×250 mm, 5 μm end capped RP-C18 column and the mobile phase containing buffer (0.1% formic acid in water and 0.1% formic acid in acetonitrile) and in some case methanol were used at the flow rate of 1 mL/min at column temperature of 25° C. at 210 nm, 190 nm, 254 nm wavelength range. A volume of 10 μL was injected and a total run time of the assay range was between 15-40 mins. The markers were estimated by HPLC using gradient technique.\nFor the preparation of plasma sample, fresh 20 ml of human blood was taken to which 2 ml of citrate buffer was added and then vortex it for about 5 minutes. Immediately after this, the mixture was centrifuged at 8000 rpm for 20 minutes, resulting in the separation of two-layer like RBC and plasma (ethical approval number 1EC/GMC/Cat A/2020/267).\nTo check the stability of prodrugs in plasma, stock solution of prodrug in DMSO (5 mg/2 ml) was prepared and placed at −20° C. The plasma sample of 50 μl was taken in different eppendorf's followed by the addition of 5 μl prodrug solution, vertex for 2 min., incubated at 37° C. at the different time point (Schedule provided in Table 1). After 24 h, all the sample were added with 200 μl MeOH with the help of vertex for about 2 minutes followed by centrifuge for about 10 minutes with 4000 rpm and two layers of sample were separated. The upper layer of methanol sample was taken and immediately the methanol sample was analyzed by 4.6×250 mm, 5 μm end capped RP-C18 column and the mobile phase containing buffer (0.1% formic acid in water and 0.1% formic acid in acetonitrile) and in some case methanol were used at the flow rate of 1 mL/min at column temperature of 25° C. at 210 nm, 190 nm, 254 nm wavelength range. A volume of 10 μL was injected and a total run time of the assay range was 15-40 mins. The markers were estimated by HPLC using gradient technique. The results are depicted in FIG. 1 to FIG. 10."}, "[2]": {"details": "published studies; cited from earlier work"}},
  "data": [
    {"smiles": "C=C(C)[C@@H]1CCC(C)=C[C@H]1c1c(O)cc(CCCCC)cc1OC(=O)CN1CCOCC1", "note": "[Compound A1a, O-(2-morpholinoacetyl) cannabidiol]", "values": [
      {"measurement": "prodrug left after 24 h", "setting": "[1]", "result": 5.5, "unit": "%"},
      {"measurement": "concentration of prodrug at the initial time point (Pre-treatment)", "setting": "[1]", "result": 49.1, "unit": "%"}
    ]},
    {"smiles": "C=C(C)[C@@H]1CCC(C)=C[C@H]1c1c(OC(=O)CN2CCOCC2)cc(CCCCC)cc1OC(=O)CN1CCOCC1", "note": "[Compound A1b, O,O-bis-(2-morpholinoacetyl) cannabidiol]", "values": [
      {"measurement": "stability / conversion of prodrug in plasma", "setting": "[1]", "result": "immediately converted into mono substituted CBD derivative"}
    ]},
    {"smiles": "C=C(C)[C@@H]1CCC(C)=C[C@H]1c1c(O)cc(CCCCC)cc1OC(=O)CN1CCC(c2ccccc2)CC1", "note": "[Compound A2a, O-{2-(4-phenylpiperidin-1-yl)acetyl} cannabidiol]", "values": [
      {"measurement": "stability / conversion of prodrug in plasma", "setting": "[1]", "result": "quite stable"}
    ]},
    {"smiles": "C=C(C)[C@@H]1CCC(C)=C[C@H]1c1c(O)cc(CCCCC)cc1OC(=O)CN1CCC(O)CC1", "note": "[Compound A3a, O-{2-(4-hydroxypiperidin-1-yl)acetyl} cannabidiol]", "values": [
      {"measurement": "prodrug left after 24 h", "setting": "[1]", "result": "below detection limit"},
      {"measurement": "concentration of prodrug at the initial time point (Pre-treatment)", "setting": "[1]", "result": 49.2, "unit": "%"}
    ]},
    {"smiles": "C=C(C)[C@@H]1CCC(C)=C[C@H]1c1c(O)cc(CCCCC)cc1OC(=O)CN1CCN(C2CC2)CC1", "note": "[Compound A5a, O-{2-(4-cyclopropylpiperazin-1-yl)acetyl} cannabidiol]", "values": [
      {"measurement": "prodrug left after 24 h", "setting": "[1]", "result": 11.1, "unit": "%"},
      {"measurement": "concentration of cannabidiol (B1) released from prodrug after 24 h", "setting": "[1]", "result": 17.4, "unit": "%"},
      {"measurement": "concentration of cannabidiol (B1) at start of release", "setting": "[1]", "result": 0, "unit": "%"},
      {"measurement": "concentration of prodrug at the initial time point (Pre-treatment)", "setting": "[1]", "result": 51.4, "unit": "%"}
    ]},
    {"smiles": "C=C(C)[C@@H]1CCC(C)=C[C@H]1c1c(OC(=O)CN2CCN(C3CC3)CC2)cc(CCCCC)cc1OC(=O)CN1CCN(C2CC2)CC1", "note": "[Compound A5b, O,O-bis-{2-(4-cyclopropylpiperazin-1-yl)acetyl} cannabidiol]", "values": [
      {"measurement": "time after which release of CBD (B1) started", "setting": "[1]", "result": "> 16", "unit": "h"},
      {"measurement": "concentration of cannabidiol (B1) released from prodrug after 24 h", "setting": "[1]", "result": 8.8, "unit": "%"},
      {"measurement": "stability / conversion of prodrug in plasma", "setting": "[1]", "result": "immediately converted into mono substituted CBD derivative"}
    ]},
    {"smiles": "C=C(C)[C@@H]1CCC(C)=C[C@H]1c1c(O)cc(CCCCC)cc1OC(=O)CN1CCN(C(C)C)CC1", "note": "[Compound A6a, O-{2-(4-isopropylpiperazin-1-yl)acetyl} cannabidiol]", "values": [
      {"measurement": "prodrug left after 24 h", "setting": "[1]", "result": 11.1, "unit": "%"},
      {"measurement": "concentration of cannabidiol (B1) released from prodrug after 24 h", "setting": "[1]", "result": 26.8, "unit": "%"},
      {"measurement": "concentration of cannabidiol (B1) at start of release", "setting": "[1]", "result": 0.6, "unit": "%"},
      {"measurement": "concentration of prodrug at the initial time point (Pre-treatment)", "setting": "[1]", "result": 51.3, "unit": "%"}
    ]},
    {"smiles": "C=C(C)[C@@H]1CCC(C)=C[C@H]1c1c(O)cc(CCCCC)cc1OC(=O)CN1CCN(C)CC1", "note": "[Compound A7a, O-{2-(4-methylpiperazin-1-yl)acetyl} cannabidiol]", "values": [
      {"measurement": "prodrug left after 24 h", "setting": "[1]", "result": 0.7, "unit": "%"},
      {"measurement": "concentration of prodrug at the initial time point (Pre-treatment)", "setting": "[1]", "result": 49.6, "unit": "%"}
    ]},
    {"smiles": "C=C(C)[C@@H]1CCC(C)=C[C@H]1c1c(O)cc(CCCCC)cc1OC(=O)CN1CCN(c2ccccc2)CC1", "note": "[Compound A8a, O-{2-(4-phenylpiperazin-1-yl)acetyl} cannabidiol]", "values": [
      {"measurement": "stability / conversion of prodrug in plasma", "setting": "[1]", "result": "quite stable"}
    ]},
    {"smiles": "C=C(C)[C@@H]1CCC(C)=C[C@H]1c1c(O)cc(CCCCC)cc1OC(=O)CN1CCCC1", "note": "[Compound A10a, O-{2-(pyrrolidin-1-yl)acetyl} cannabidiol]", "values": [
      {"measurement": "prodrug left after 24 h", "setting": "[1]", "result": 1.9, "unit": "%"},
      {"measurement": "concentration of prodrug at the initial time point (Pre-treatment)", "setting": "[1]", "result": 51.3, "unit": "%"}
    ]},
    {"smiles": "C=C(C)[C@@H]1CCC(C)=C[C@H]1c1c(O)cc(CCCCC)cc1O", "note": "[Compound B1, cannabidiol]", "values": [
      {"measurement": "plasma protein binding", "setting": "[2]", "result": "> 94", "unit": "%"}
    ]}
  ]
}
